For data set [1], the target named is T1, lysosomal GCase (Homo sapiens, UniProt P04062).
T1 construct: fibroblasts established from a normal subject; endogenous in cells; host or cells: fibroblasts established from a normal subject
T1 sequence (P04062 40-536): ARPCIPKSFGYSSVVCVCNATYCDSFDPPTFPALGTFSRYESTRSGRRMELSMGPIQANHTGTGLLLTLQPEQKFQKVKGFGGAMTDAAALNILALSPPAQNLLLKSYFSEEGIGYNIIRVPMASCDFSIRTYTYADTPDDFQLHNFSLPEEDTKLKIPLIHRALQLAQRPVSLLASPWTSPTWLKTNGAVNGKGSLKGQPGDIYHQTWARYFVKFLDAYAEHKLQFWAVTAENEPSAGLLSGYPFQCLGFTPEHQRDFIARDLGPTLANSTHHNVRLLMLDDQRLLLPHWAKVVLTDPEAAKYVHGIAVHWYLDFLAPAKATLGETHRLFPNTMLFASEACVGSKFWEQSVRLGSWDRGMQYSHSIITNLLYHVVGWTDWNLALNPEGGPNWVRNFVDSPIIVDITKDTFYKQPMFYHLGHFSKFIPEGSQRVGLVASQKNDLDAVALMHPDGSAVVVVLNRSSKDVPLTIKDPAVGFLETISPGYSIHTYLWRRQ
Briefly: In situ lysosomal GCase inhibition and washout in fibroblasts from a normal subject (PFBFDβGlu substrate). The data set is classed as cell-based. The following applies: for in situ washout: after 16-24 hours at IC90, single exponential fit of activity recovery over 8 hours. On the procedure:
The effect of the novel compounds of the present invention on lysosomal GCase activity was assayed in situ using fibroblasts established from a normal subject. Cells seeded in 48-well plates were incubated with the indicated concentrations of compound for 16-24 hours. For the dose-response assays, cells were incubated with the in situ substrate 5-(pentafluorobenzoylamino)fluorescein di-β-D-glucopyranoside (PFBFDβGlu) for 1 hour and subsequently lysed to determine the extent of substrate hydrolysis in the presence of compound. […] Inhibition was determined as the ratio of activity in the presence of compound to that in the absence of compound. […] Cells were washed extensively and incubated in drug-free medium to allow net compound efflux from cells. Cells were then tested for lysosomal GCase activity at 2 hour intervals over a total period of 8 hours following compound removal. The increase in activity over time was fitted with a single exponential function to determine the compound's washout time.

Data set [2] in a line: GCase enhancement in brain and spleen after oral dosing over 2 weeks. The data set is classed as in vivo, mice. The following applies: male, C57BL/6, mouse, brain homogenate as diluted in the GCase assay, po, brain, read-out: Compound concentration in GCase assay. The method, then: The ability of orally administered test compounds ((3R,4R,5S)-5-(difluoromethyl)piperidine-3,4-diol, (3R,4R,5S)-5-(1-fluoroethyl)piperidine-3,4-diol, (3R,4R,5S)-5-((R)-1-fluoropropyl)piperidine-3,4-diol hydrochloride, or (3R,4R,5S)-5-benzylpiperidine-3,4-diol) to elevate GCase levels was assessed in mice. For this purpose, 8-week old wild-type male mice (C57BL/6) were administered a single p.o. (gavage) dose of a compound of the present invention (i.e., (3R,4R,5S)-5-(difluoromethyl)piperidine-3,4-diol, (3R,4R,5S)-5-(1-fluoroethyl)piperidine-3,4-diol, (3R,4R,5S)-5-((R)-1-fluoropropyl)piperidine-3,4-diol hydrochloride, or (3R,4R,5S)-5-benzylpiperidine-3,4-diol). The dosing solutions were prepared in water. Compounds were administered over 2 weeks as follows: week 1, Mon-Fri (On), Sat-Sun (Off); week 2, Mon-Thu (On); necropsy on Friday. Thus, a total of 9 doses (dosing solutions prepared fresh every day) were given to each mouse, with a 24-hour washout between the last dose and necropsy.
Plasma was collected by spinning blood at 2700 g for 10 minutes at 4° C. Liver, spleen, lung, and brain tissues were removed, washed in cold PBS, blotted dry, flash frozen on dry ice, and stored at −80° C. until analysis. GCase levels were measured by homogenizing approximately 50 mg tissue in 500 μL McIlvane (MI) buffer (100 mM sodium citrate, 200 mM sodium phosphate dibasic, 0.25% sodium taurocholate, and 0.1% Triton X-100, pH 5.2) at pH 5.2 for 3-5 seconds on ice with a micro homogenizer. Homogenates were then incubated at room temperature without and with 2.5 mM conduritol-B-epoxide (CBE) for 30 min. Finally, 3.7 mM 4-methylumbeliferryl-β-glucoside (4-MUG) substrate was added and incubated at 37° C. for 60 min. […] Fluorescence was measured on a plate reader for 1 sec/well using 355 nm excitation and 460 nm emission. Total protein was determined in lysates using the MicroBCA kit according to the manufacturer's instructions. A 4-methylumbelliferone (4-MU) standard curve ranging from 1.0 nM to 50 μM was run in parallel for conversion of raw fluorescence data to absolute GCase activity (in the presence and absence of CBE) and expressed as nanomoles of 4-MU released per milligram of protein per hour (nmol/mg protein/hr). GCase levels and protein levels were calculated using Microsoft Excel (Redmond, Wash.) and GraphPad Prism version 4.02.

Data set [3] has as its target T2, GCase (Homo sapiens, UniProt P04062).
T2 sequence (P04062 40-536): T1 sequence (P04062 40-536)
Briefly: GCase activity enhancement (EC50, Emax) of Table 2B. The note with it: for GCase activity enhancement compared to reference compound IFG-tartrate: same maximum level as IFG-tartrate at much lower concentration. The data set is classed as cell-based.

A short description of data set [4]: Rat pharmacokinetics. The class given is in vivo, rats. The following applies: for AUC(0-t): AUC0-24 hr. On the procedure: Pharmacokinetic (PK) data was obtained in rats to assess the bioavailability of test compound. In particular, the following PK parameters were calculated: bioavailability as measured by area under the Concentration/Time curve (AUC), fraction of dose available (% F; further defined below), clearance (CL), volume of distribution (Vd), and half-life (t½). […] Three rats were used per dosing group. Blood was collected over a 24-hr period. The time points for blood collection after intravenous administration were: 0, 2.5, 5, 10, 15, 30, 45 min, 1, 2, 4, 8, 12, and 24 hrs; time points for blood collection after p.o. administrations were: 0, 5, 15, 30, 45 min, 1, 2, 3, 4, 8, 12, and 24 hrs. Plasma samples were analyzed for compound levels by LC-MS/MS at PPD. Raw data was analyzed by non-compartmental analysis in Win-nonLin to calculate VD, % F, CL, and t1/2.

Setting [5] is: male, Sprague-Dawley, plasma, iv, 3 mg/kg, IV 3 mg/kg free base.

Where a name gives a salt, the structure may show the parent alone. Read-outs that look alike come from different tables or passages of the source.

On to `CC(F)[C@H]1CNC[C@@H](O)[C@@H]1O` (single isomer, unassigned), for which the “in situ washout from the lysosomal compartment compared to IFG-tartrate” value (“in situ washout … compared to IFG-tartrate” below) in data set [1] was “considerably faster than reference compound IFG-tartrate”. For the same compound, in data set [1], the “inhibition of GCase activity” value was “inhibited GCase activity”. Further, the concentration at 24 h in data set [2] (10 mg/kg, 10 mg/kg FBE p.o.) is 0.2 nM. Besides, in data set [3], the “GCase activity enhancement compared to reference compound IFG-tartrate” value is “concentration-dependent increase in GCase activity”. Also, the dose proportionality entry in data set [4] is listed as “dose proportionality”. In data set [4], the pharmacokinetic profile result was “favorable pharmacokinetic profiles for drug development”. Besides, in data set [4], the volume of distribution entry is given as “suggesting adequate penetration into peripheral tissues”. The same compound returned a Vd in data set [4] (setting [5]) of 9.77 ± 1.55 L/kg. For the same compound, the clearance in data set [4] (setting [5]) is 45.1 mL/min/kg. The AUC(0-t) in data set [4] (setting [5]) came to 1420 ± 188 ng·h/mL; in data set [4] (male, Sprague-Dawley, plasma, po, 10 mg/kg, PO 10 mg/kg free base), 7100 ± 606 ng·h/mL; in data set [4] (male, Sprague-Dawley, plasma, po, 30 mg/kg, PO 30 mg/kg free base) it was 21700 ± 1710 ng·h/mL; in data set [4] (male, Sprague-Dawley, plasma, po, 100 mg/kg, PO 100 mg/kg free base), 59500 ± 1000 ng·h/mL. Also, the Cmax in data set [4] (male, Sprague-Dawley, plasma, iv, 3 mg/kg, IV 3 mg/kg free base, read-out: Cmax) was 2330 ± 373 ng/mL; in data set [4] (male, Sprague-Dawley, plasma, po, 30 mg/kg, PO 30 mg/kg free base, read-out: Cmax) it was 6920 ± 451 ng/mL; in data set [4] (male, Sprague-Dawley, plasma, po, 100 mg/kg, PO 100 mg/kg free base, read-out: Cmax) it was 19400 ± 3030 ng/mL. Also, the half-life was 2.6 ± 0.64 h in data set [4] (male, Sprague-Dawley, plasma, iv, 3 mg/kg, IV 3 mg/kg free base, read-out: t1/2 (converted)); 2.8 ± 0.5 h in data set [4] (male, Sprague-Dawley, plasma, po, 10 mg/kg, PO 10 mg/kg free base, read-out: t1/2 (converted)); 2.7 ± 0.12 h in data set [4] (male, Sprague-Dawley, plasma, po, 30 mg/kg, PO 30 mg/kg free base, read-out: t1/2 (converted)); 2.5 ± 0.19 h in data set [4] (male, Sprague-Dawley, plasma, po, 100 mg/kg, PO 100 mg/kg free base, read-out: t1/2 (converted)); 1 to 4 h in data set [4] (male, Sprague-Dawley, plasma, read-out: half-life). Besides, the bioavailability in data set [4] (male, Sprague-Dawley, plasma, po, approximately) fell in the range of 50 to 100%.

With `O[C@H]1[C@H](O)CNC[C@@H]1C(F)F` [Compound 6, (3R,4R,5S)-5-(Difluoromethyl)piperdine 3,4-diol Hydrochloride], in data set [1], the “in situ washout … compared to IFG-tartrate” value is on record as “considerably faster than reference compound IFG-tartrate”, the “inhibition of GCase activity” value was “inhibited GCase activity” and the “in situ washout” value stood at 2.1 ± 0.30 h. Besides, the concentration at 24 h in data set [2] (10 mg/kg, 10 mg/kg FBE p.o.) was 0.2 nM. The concentration at 24 h in data set [2] (100 mg/kg, 100 mg/kg FBE p.o.) turned out to be 1 nM. In data set [3], the Emax was determined as 106 ± 8.7% and the “GCase activity enhancement compared to reference compound IFG-tartrate” value is “concentration-dependent increase in GCase activity”. In data set [4], the dose proportionality entry is listed as “dose proportionality”, the pharmacokinetic profile entry is recorded as “favorable pharmacokinetic profiles for drug development” and the volume of distribution entry is on record as “suggesting adequate penetration into peripheral tissues”. Further, in data set [4] (IV 3 mg/kg free base), the “CL” value is 25.92 mL/min/kg, the “Cmax” value was found to be 2323 ng/mL and the “VD” value came to 2.612 L/kg. Also, in data set [4] (PO 10 mg/kg free base), the “% F” value stood at 106%, the “Cmax” value was found to be 3363 ng/mL and the “t1/2” value is given as 2.58 h. Further, in data set [4] (PO 30 mg/kg free base), the “% F” value amounted to 101%, the “Cmax” value is on record as 10037 ng/mL and the “t1/2” value turned out to be 2.75 h. Also, in data set [4] (PO 100 mg/kg free base), the “% F” value is 121%, the “Cmax” value was found to be 33200 ng/mL and the “t1/2” value is given as 2.41 h.

Turning to `CC[C@@H](F)[C@H]1CNC[C@@H](O)[C@@H]1O.Cl` [(3R,4R,5S)-5-((R)-1-fluoropropyl)-piperidine-3,4-diol hydrochloride], the “inhibition of GCase activity” value in data set [1] was “inhibited GCase activity”. Further, the concentration at 24 h in data set [2] (100 mg/kg, 100 mg/kg FBE p.o.) was 0.1 nM. Further, in data set [3], the Emax worked out at 84 ± 4.1% and the “GCase activity enhancement compared to reference compound IFG-tartrate” value was “concentration-dependent increase in GCase activity”.

Regarding `O[C@@H]1[C@@H](Cc2ccccc2)CNC[C@H]1O` [(3R,4R,5S)-5-benzyl-piperidine-3,4-diol], in data set [1], the “in situ washout … compared to IFG-tartrate” value is “considerably faster than reference compound IFG-tartrate”, the “inhibition of GCase activity” value was “inhibited GCase activity” and the “in situ washout” value was 1.2 ± 0.13 h. In data set [3], the Emax was found to be 98 ± 4.5% and the “GCase activity enhancement compared to reference compound IFG-tartrate” value is reported as “concentration-dependent increase in GCase activity”. In addition, in data set [4], the dose proportionality entry is given as “dose proportionality”, the pharmacokinetic profile entry is given as “favorable pharmacokinetic profiles for drug development” and the volume of distribution result is given as “suggesting adequate penetration into peripheral tissues”.

The term Vd denotes the apparent volume that relates the amount in the body to the concentration in plasma or blood. A lower Vd goes with confinement near the circulation. As a reminder, the clearance is a measure of how efficiently the substance is removed, as volume per time. A low value points to a low capacity for elimination. The AUC(0-t) is exposure summed from dosing to a finite time, without extrapolation to infinity. By Cmax is commonly meant the peak of the concentration-time curve. A word on the bioavailability: it is dose-corrected exposure relative to a reference, in per cent. The low end stands for poor availability, the high end for good availability. One may read the Emax as the size of the effect at its maximum, as opposed to the concentration needed.

The record behind these values is patent US10035766B2, “Compositions for preventing and/or treating lysosomal storage disorders” (Amicus Therapeutics, Inc., priority 2009, dated 2018).
